The assay has as its target β-glucuronidase activity in live E. coli (4MUG to 4MU conversion) (Escherichia coli, UniProt P05804). Description: Cell-based E. coli assay with 4MUG substrate, with and without esterase pre-treatment of prodrug. The following applies: for IC50: live E. coli. The protocol: For esterase activation, the prodrug is treated with 5 mg/mL esterase for 30 mins at 37° C. to cleave the ester bonds yielding the glucuronide moiety. Following treatment, an inhibitor titration ranging from 10 uM to 10 pM is mixed and preincubated with live E. coli for 5 mins or 4 hours at 37° C. in a microplate with assay buffer (HEPES pH 7, NaCl). Chemically synthesized SY65-G is included as a positive control. Following preincubation, 4-methylumbelliferyl glucuronide (4MUG) is added at a final concentration of 100 uM to the cell and inhibitor mixture. The conversion of 4MUG to 4MU is detected via fluorescence (Ex./Em.: 360/460). […] The untreated prodrug is not active.

The mark [1] stands for this setting: 5 min preincubation, no esterase treatment, read-out: Potency, pre-incubation time 5 min.
Setting [2] is: 5 min preincubation, treated with 5 mg/mL esterase for 30 mins at 37° C., read-out: Potency, pre-incubation time 5 min, + Esterase.
Where [3] appears, read: 4 hour preincubation, no esterase treatment, read-out: Potency, pre-incubation time 4 hour.
[4] abbreviates: 4 hour preincubation, treated with 5 mg/mL esterase for 30 mins at 37° C., read-out: Potency, pre-incubation time 4 hour, + Esterase.

From patent US20220125778A1 (priority 2019, published 2022) come the findings set out here.

Read-outs that look alike come from different tables or passages of the source. Where only a bound is given, the exact number is not on record here.

Chain of β-glucuronidase activity in live E. coli (4MUG to 4MU conversion) (P05804 whole entry): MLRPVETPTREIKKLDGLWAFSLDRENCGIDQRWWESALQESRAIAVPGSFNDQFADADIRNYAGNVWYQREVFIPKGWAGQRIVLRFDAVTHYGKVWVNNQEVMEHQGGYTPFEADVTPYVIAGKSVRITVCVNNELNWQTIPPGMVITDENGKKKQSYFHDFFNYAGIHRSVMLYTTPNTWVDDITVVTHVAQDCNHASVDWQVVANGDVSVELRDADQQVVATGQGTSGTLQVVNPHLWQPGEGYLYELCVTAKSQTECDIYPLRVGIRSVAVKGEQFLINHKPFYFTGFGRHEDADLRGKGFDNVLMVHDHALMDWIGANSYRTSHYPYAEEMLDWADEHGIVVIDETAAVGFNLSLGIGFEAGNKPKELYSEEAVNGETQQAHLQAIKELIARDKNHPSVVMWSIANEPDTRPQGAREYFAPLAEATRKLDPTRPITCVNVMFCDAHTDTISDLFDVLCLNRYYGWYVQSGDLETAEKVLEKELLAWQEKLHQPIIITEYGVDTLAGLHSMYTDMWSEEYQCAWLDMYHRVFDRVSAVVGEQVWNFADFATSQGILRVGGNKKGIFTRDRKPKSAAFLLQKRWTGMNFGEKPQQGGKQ

Take `Cc1cc(C)c2[nH]c(=O)c(CN(CCO[C@@H]3O[C@H](C(=O)O)[C@@H](O)[C@H](O)[C@H]3O)C(=O)Nc3ccccc3C(C)C)cc2c1` [SY65-G, (2S,3S,4S,5R,6R)-6-[2-[(6,8-dimethyl-2-oxo-1H-quinolin-3-yl)methyl-[(2-isopropylphenyl)carbamoyl]amino]ethoxy]-3,4,5-trihydroxy-tetrahydropyran-2-carboxylic acid]: the IC50 turned out to be 125 nM under setting [1], 93 nM under setting [2], 0.53 nM under setting [3] and 0.57 nM under setting [4].

`COC(=O)[C@H]1O[C@@H](OCCN(Cc2cc3cc(C)cc(C)c3[nH]c2=O)C(=O)Nc2ccccc2C(C)C)[C@H](OC(C)=O)[C@@H](OC(C)=O)[C@@H]1OC(C)=O` [SY65-G-Ac, Methyl (2S,3S,4S,5R,6R)-3,4,5-triacetoxy-6-[2-[(6,8-dimethyl-2-oxo-1H-quinolin-3-yl)methyl-[(2-isopropylphenyl)carbamoyl]amino]ethoxy]tetrahydropyran-2-carboxylate]: where the note is “esterase treated”, the “Potency of esterase treated prodrug versus glucuronide positive control” value is “just as potent as the glucuronide positive control”. Moreover, the IC50 under setting [1] was greater than 10000 nM, the IC50 under setting [2] stood at 156 nM, the IC50 under setting [3] is greater than 10000 nM and the IC50 under setting [4] stood at 0.52 nM. The “Activity of untreated prodrug in cell-based assay” value (without esterase treatment) was “not active”.
